{"source": "patent US20020137929A1", "about": "“1 - (3-heterocyclylphenyl) isothiourea, -isourea, -guanidine and -amidine herbicidal agents” (Intellectual Property Department, BASF Aktiengesellschaft, priority 1998, published 2002)", "key": {"[1]": {"tested_on": "AMBEL (Ragweed, Common)", "assay": "Postemergence herbicidal evaluation", "assay_type": "in vivo, Ambrosia artemisifolia", "settings": "postemergence", "in_short": "(§1)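 Herbicidal effect was judged by eye on a 0–9 scale covering stand, vigor, deformity, size and chlorosis, compared with controls, four to five weeks after seedlings about two weeks old were sprayed (40 psi, ~0.0156–0.500 kg/ha).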"}, "[2]": {"tested_on": "CASOB (Sicklepod)", "assay": "Postemergence herbicidal evaluation", "assay_type": "in vivo, Cassia obtusifolia", "settings": "postemergence", "in_short": "as §1"}, "[3]": {"tested_on": "GALAP (Galium)", "assay": "Postemergence herbicidal evaluation", "assay_type": "in vivo, Galium aparine", "settings": "postemergence", "in_short": "as §1"}, "[4]": {"tested_on": "GLXMAW (Soybean, Williams)", "assay": "Postemergence herbicidal evaluation", "assay_type": "in vivo, Glycine max, (L.) Merr. cv Williams", "settings": "postemergence", "in_short": "as §1"}, "[5]": {"tested_on": "TRZAWR (Wheat, Winter, cv Riband)", "assay": "Postemergence herbicidal evaluation", "assay_type": "in vivo, Triticum aestivum", "settings": "postemergence", "in_short": "as §1"}, "[6]": {"tested_on": "GALAP (Galium)", "assay": "Preemergence herbicidal evaluation", "assay_type": "in vivo, Galium aparine", "settings": "rated 4-5 weeks after treatment, rating scale 0-9", "in_short": "(§2)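 Visual 0-9 rating vs control (stand, vigor, malformation, size, chlorosis, overall appearance), scored 4-5 wk after spraying. Seeded soil cups were treated preemergence with compound in aqueous acetone, ~0.0156-0.500 kg/ha equivalent.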"}, "[7]": {"tested_on": "SETVI (Foxtail, Green)", "assay": "Preemergence herbicidal evaluation", "assay_type": "in vivo, Setaria viridis", "settings": "rated 4-5 weeks after treatment, rating scale 0-9", "in_short": "as §2"}, "[8]": {"tested_on": "ORYSAT (Rice, Tebonnet)", "assay": "Preemergence herbicidal evaluation", "assay_type": "in vivo, Oryza sativa, (L.) Tebonnet", "settings": "rated 4-5 weeks after treatment, rating scale 0-9", "excerpt": "Results of herbicide evaluation are expressed on a rating scale (0-9). The scale is based upon a visual observation of plant stand, vigor, malformation, size, chlorosis and overall plant appearance as compared with a control.\nThe preemergence herbicidal activity of the test compounds of the present invention is exemplified by the following tests in which the seeds of a variety of monocotyledonous and dicotyledonous plants are separately mixed with potting soil and planted on top of approximately one inch of soil in separate pint cups. After planting, the cups are sprayed with the selected aqueous acetone solution containing test compound in sufficient quantity to provide the equivalent of about 0.0156 to 0.500 kg per hectare of test compound per cup. The treated cups are then placed on greenhouse benches, watered and cared for in accordance with conventional greenhouse procedures. From four to five weeks after treatment, the tests are terminated and each cup is examined and rated according to the rating system provided in Example 37.\nThe compounds evaluated are reported by compound number given in Example 37."}, "[9]": {"tested_on": "ECHORC (Watergrass (Calif.))", "assay": "Preemergence weed control under flooded paddy conditions", "assay_type": "in vivo, Echinochloa oryzoides", "settings": "0.2500 kg/ha, rated 3-4 weeks after treatment", "in_short": "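Ratings on a 0-9 visual scale cover stand, vigor, malformation, size, chlorosis and overall appearance relative to a control, taken three to four weeks post-treatment. Application was into flood water over freshly sown silt loam at roughly 0.0313 to 0.500 kg/ha.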"}, "[10]": {"tested_on": "MOOVA (Monochoria)", "assay": "Preemergence weed control under flooded paddy conditions", "assay_type": "in vivo, Monochoria vaginalis", "settings": "0.2500 kg/ha, rated 3-4 weeks after treatment", "in_short": "(§3)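 Silt loam, seeds in top 0.5 cm; flood held 1.5-3 cm; test cpd as acetone/water 50/50 into flood water, ~0.0313-0.500 kg/ha a.i.; greenhouse 3-4 wk; visual 0-9 score vs control.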"}, "[11]": {"tested_on": "SAGPY (Arrowhead (Pygmaea))", "assay": "Preemergence weed control under flooded paddy conditions", "assay_type": "in vivo, Sagittaria pygmaea", "settings": "0.2500 kg/ha, rated 3-4 weeks after treatment", "in_short": "as §3"}}, "data": [{"smiles": "COc1ccc(CN2C(=O)CSC2=Nc2cc(-n3c(=O)cc(C(F)(F)F)n(C)c3=O)c(F)cc2Cl)cc1OC", "note": "[Compound 134, 3-{4-Chloro-5-{[3-(3,4-dimethoxybenzyl)-4-oxo-2-thiazolidinylidene]amino}-2-fluorophenyl}-1-methyl-6-(trifluoromethyl)-2,4(1H,3H)-pyrimidinedione]", "values": [{"measurement": "herbicidal rating AMBEL", "setting": "[1]; rate 0.0156 kg/ha", "result": 3.0}, {"measurement": "herbicidal rating AMBEL", "setting": "[1]; rate 0.0313 kg/ha", "result": 4.0}, {"measurement": "herbicidal rating AMBEL", "setting": "[1]; rate 0.0625 kg/ha", "result": 7.0}, {"measurement": "herbicidal rating CASOB", "setting": "[2]; rate 0.0156 kg/ha", "result": 0.0}, {"measurement": "herbicidal rating CASOB", "setting": "[2]; rate 0.0313 kg/ha", "result": 0.0}, {"measurement": "herbicidal rating CASOB", "setting": "[2]; rate 0.0625 kg/ha", "result": 0.0}, {"measurement": "herbicidal rating GALAP", "setting": "[3]; rate 0.0156 kg/ha", "result": 0.0}, {"measurement": "herbicidal rating GALAP", "setting": "[3]; rate 0.0313 kg/ha", "result": 1.0}, {"measurement": "herbicidal rating GALAP", "setting": "[3]; rate 0.0625 kg/ha", "result": 2.0}, {"measurement": "herbicidal rating GLXMAW", "setting": "[4]; rate 0.0156 kg/ha", "result": 3.5}, {"measurement": "herbicidal rating GLXMAW", "setting": "[4]; rate 0.0313 kg/ha", "result": 4.0}, {"measurement": "herbicidal rating GLXMAW", "setting": "[4]; rate 0.0625 kg/ha", "result": 5.0}, {"measurement": "herbicidal rating TRZAWR", "setting": "[5]; rate 0.0156 kg/ha", "result": 2.5}, {"measurement": "herbicidal rating TRZAWR", "setting": "[5]; rate 0.0313 kg/ha", "result": 3.5}, {"measurement": "herbicidal rating TRZAWR", "setting": "[5]; rate 0.0625 kg/ha", "result": 4.0}, {"measurement": "Preemergence herbicidal rating GALAP", "setting": "[6]; rate 0.1250 kg/ha", "result": 1.0}, {"measurement": "Preemergence herbicidal rating GALAP", "setting": "[6]; rate 0.2500 kg/ha", "result": 0.0}, {"measurement": "Preemergence herbicidal rating SETVI", "setting": "[7]; rate 0.1250 kg/ha", "result": 0.0}, {"measurement": "Preemergence herbicidal rating SETVI", "setting": "[7]; rate 0.2500 kg/ha", "result": 2.0}, {"measurement": "Preemergence herbicidal rating ORYSAT", "setting": "[8]; rate 0.1250 kg/ha", "result": 0.0}, {"measurement": "Preemergence herbicidal rating ORYSAT", "setting": "[8]; rate 0.2500 kg/ha", "result": 0.0}, {"measurement": "herbicidal effect rating, ECHORC", "setting": "[9]", "result": 2.0}, {"measurement": "herbicidal effect rating, MOOVA", "setting": "[10]", "result": 2.0}, {"measurement": "herbicidal effect rating, SAGPY", "setting": "[11]", "result": 0.0}]}, {"smiles": "CSCCN1C(=O)CSC1=Nc1cc(-n2c(=O)cc(C(F)(F)F)n(C)c2=O)c(F)cc1Cl", "note": "[Compound 157]", "values": [{"measurement": "herbicidal rating AMBEL", "setting": "[1]; rate 0.0156 kg/ha", "result": 2.0}, {"measurement": "herbicidal rating AMBEL", "setting": "[1]; rate 0.0313 kg/ha", "result": 2.0}, {"measurement": "herbicidal rating AMBEL", "setting": "[1]; rate 0.0625 kg/ha", "result": 5.0}, {"measurement": "herbicidal rating CASOB", "setting": "[2]; rate 0.0156 kg/ha", "result": 0.0}, {"measurement": "herbicidal rating CASOB", "setting": "[2]; rate 0.0313 kg/ha", "result": 0.0}, {"measurement": "herbicidal rating CASOB", "setting": "[2]; rate 0.0625 kg/ha", "result": 3.0}, {"measurement": "herbicidal rating GALAP", "setting": "[3]; rate 0.0156 kg/ha", "result": 0.0}, {"measurement": "herbicidal rating GALAP", "setting": "[3]; rate 0.0313 kg/ha", "result": 0.0}, {"measurement": "herbicidal rating GALAP", "setting": "[3]; rate 0.0625 kg/ha", "result": 2.0}, {"measurement": "herbicidal rating GLXMAW", "setting": "[4]; rate 0.0156 kg/ha", "result": 4.5}, {"measurement": "herbicidal rating GLXMAW", "setting": "[4]; rate 0.0313 kg/ha", "result": 5.0}, {"measurement": "herbicidal rating GLXMAW", "setting": "[4]; rate 0.0625 kg/ha", "result": 7.5}, {"measurement": "herbicidal rating TRZAWR", "setting": "[5]; rate 0.0156 kg/ha", "result": 2.5}, {"measurement": "herbicidal rating TRZAWR", "setting": "[5]; rate 0.0313 kg/ha", "result": 3.5}, {"measurement": "herbicidal rating TRZAWR", "setting": "[5]; rate 0.0625 kg/ha", "result": 4.0}, {"measurement": "Preemergence herbicidal rating GALAP", "setting": "[6]; rate 0.0313 kg/ha", "result": 0.0}, {"measurement": "Preemergence herbicidal rating GALAP", "setting": "[6]; rate 0.0625 kg/ha", "result": 0.0}, {"measurement": "Preemergence herbicidal rating GALAP", "setting": "[6]; rate 0.1250 kg/ha", "result": 0.0}, {"measurement": "Preemergence herbicidal rating GALAP", "setting": "[6]; rate 0.2500 kg/ha", "result": 4.0}, {"measurement": "Preemergence herbicidal rating SETVI", "setting": "[7]; rate 0.0313 kg/ha", "result": 0.0}, {"measurement": "Preemergence herbicidal rating SETVI", "setting": "[7]; rate 0.0625 kg/ha", "result": 0.0}, {"measurement": "Preemergence herbicidal rating SETVI", "setting": "[7]; rate 0.1250 kg/ha", "result": 2.0}, {"measurement": "Preemergence herbicidal rating SETVI", "setting": "[7]; rate 0.2500 kg/ha", "result": 1.0}, {"measurement": "Preemergence herbicidal rating ORYSAT", "setting": "[8]; rate 0.0313 kg/ha", "result": 0.0}, {"measurement": "Preemergence herbicidal rating ORYSAT", "setting": "[8]; rate 0.0625 kg/ha", "result": 0.0}, {"measurement": "Preemergence herbicidal rating ORYSAT", "setting": "[8]; rate 0.1250 kg/ha", "result": 0.0}, {"measurement": "Preemergence herbicidal rating ORYSAT", "setting": "[8]; rate 0.2500 kg/ha", "result": 0.0}, {"measurement": "herbicidal effect rating, ECHORC", "setting": "[9]", "result": 0.0}, {"measurement": "herbicidal effect rating, MOOVA", "setting": "[10]", "result": 0.0}, {"measurement": "herbicidal effect rating, SAGPY", "setting": "[11]", "result": 0.0}]}]}
